From patent publication US10059667B2, “Antidiabetic compounds” (MERCK SHARP & DOHME CORP., priority 2014, dated 2018) come the findings set out here.

For orientation: EC50 means the concentration giving half of the maximal effect. A low value points to higher potency in that assay.

The experiment deals with Human GPR40 (Homo sapiens (Human), UniProt O14842). Briefly: Inositol Phosphate Turnover (IP1) Assay 1, HEK cells stably expressing human GPR40, 3H-inositol SPA. As to conditions: HEK cells stably expressing human GPR40, 96-well. The format is cell-based. The protocol: Human and mouse GPR40 stable cell-lines were generated in CHO cells stably expressing NFAT BLA (Beta-lactamase). A human GPR40 stable cell-line was generated in HEK cells stably expressing the aequorin expressing reporter. The expression plasmids were transfected using lipofectamine (Life Technologies) following manufacturer's instructions. Stable cell-lines were generated following drug selection.
Sequence of Human GPR40 (O14842 whole entry): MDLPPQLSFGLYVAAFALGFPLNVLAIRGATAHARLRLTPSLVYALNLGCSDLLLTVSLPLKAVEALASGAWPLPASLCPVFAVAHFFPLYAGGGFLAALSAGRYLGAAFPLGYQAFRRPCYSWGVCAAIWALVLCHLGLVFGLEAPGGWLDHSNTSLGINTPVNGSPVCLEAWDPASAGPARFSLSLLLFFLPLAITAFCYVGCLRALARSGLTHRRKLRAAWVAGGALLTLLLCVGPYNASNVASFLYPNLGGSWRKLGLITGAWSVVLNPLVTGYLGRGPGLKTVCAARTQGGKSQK
The assay was performed in 96-well format. HEK cells stably expressing human GPR40 were plated to be 60-80% confluent within 72 h. After 72 h, the plates were aspirated and the cells washed with inositol-free DMEM (ICN). The wash media was replaced with 150 μL of 3H-inositol labeling media (inositol-free media containing 0.4% human albumin or 0.4% mouse albumin, 1× pen/strep antibiotics, glutamine, 25 mM HEPES to which was added 3H-myo-inositol NEN #NET114A 1 mCi/mL, 25 Ci/mmol diluted 1:150 in loading media with a final specific radioactivity of 1 μCi/150 μL). Alternatively, the human and mouse albumin can be added after the overnight labeling step before the addition of LiCl.
The assay was typically run the next day after 18 h labeling. On the day of the assay, 5 μL of 300 mM LiCl was added to all wells and incubated at 37 degrees for 20 min. 0.75 μL of each compound was added and incubated with the cells for 60 min at 37 degrees. The media was then aspirated off and the assay terminated with the addition of 60 μL 10 mM formic acid. The cells were lysed for 60 min at room temperature. 15-30 μL of lysate was mixed with 70 μL/1 mg YSi SPA beads (Amersham) in clear bottom Isoplates. The plates were shaken for 2 h at room temperature. Beads were allowed to settle and the plates were counted in the Wallac Microbeta.
`C[C@H](C(=O)O)[C@H](c1cccc(OCC2CCN(c3ncccc3C(F)(F)F)CC2)c1)C1CC1` [Example 38] registered an EC50 of 13 nM. In the case of `C[C@H](C(=O)O)[C@H](c1cccc(OC[C@H]2C[C@@H]2c2cccnc2)c1)C1CC1` [Example 147] it was 4440 nM; in that of `C[C@H](C(=O)O)[C@H](c1cccc(OCC2CC(Oc3ccccc3-c3ccccc3)C2)c1)C1CC1` (stereo partly shown) [Example 132], 150 nM. `COc1cccc(C[C@H]2C[C@@H]2COc2cccc([C@H](C3CC3)[C@H](C)C(=O)O)c2)c1` [Example 70] came in with an EC50 of 146 nM. In turn, `CCC(c1cc(C(F)(F)F)ccc1C(F)(F)F)N1CC(COc2cccc([C@H](C3CC3)[C@H](C)C(=O)O)c2)C1` (stereo partly shown) [Example 36] showed an EC50 of 12 nM. `C[C@H](C(=O)O)[C@H](c1cccc(OC[C@H]2C[C@@H]2c2ccc(F)c(C(F)(F)F)c2)c1)C1CC1` [Example 144] returned an EC50 of 385 nM.

`Cc1cc(OC2CC(COc3cccc([C@H](C4CC4)[C@H](C)C(=O)O)c3)C2)n(C)n1` (stereo partly shown) [Example 97] showed an EC50 of 7240 nM. In the case of `CC(c1cc(C(F)(F)F)ccc1C(F)(F)F)N1CCC(COc2cccc([C@H](C3CC3)[C@H](C)C(=O)O)c2)CC1` (stereo partly shown) [Example 35] it was 20 nM; in that of `C[C@H](C(=O)O)[C@H](c1cccc(OCC2CC(Oc3ccnn3C)C2)c1)C1CC1` (stereo partly shown) [Example 101], 7220 nM. The compound `C[C@H](C(=O)O)[C@H](c1cccc(OC[C@H]2C[C@@H]2c2ccc(Cl)c(C(F)(F)F)c2)c1)C1CC1` [Example 156] registered an EC50 of 355 nM.

For the compound `COc1cc(C2CC(COc3cccc([C@H](C4CC4)[C@H](C)C(=O)O)c3)C2)ccn1` (single isomer, unassigned) [Example 88], a half-maximal response (EC50) required 930 nM. This EC50 is about 2.6-fold higher than that of the compound before. The compound `COc1ccc(OC2CC(COc3cccc([C@H](C4CC4)[C@H](C)C(=O)O)c3)C2)cc1` (stereo partly shown) [Example 124] had an EC50 of 577 nM. Compared with the last compound, the EC50 is about 1.6-fold lower. As for `COc1cccc(F)c1OC1CC(COc2cccc([C@H](C3CC3)[C@H](C)C(=O)O)c2)C1` (single isomer, unassigned) [Example 129], the 50% effective concentration (EC50) amounted to 109 nM.

In turn, `CCOc1cccc(OC2CC(COc3cccc([C@H](C4CC4)[C@H](C)C(=O)O)c3)C2)c1` (stereo partly shown) [Example 131] displayed an EC50 of 119 nM.

Regarding `Cc1ccc(F)c(OC2CC(COc3cccc([C@H](C4CC4)[C@H](C)C(=O)O)c3)C2)c1` (single isomer, unassigned) [Example 118], a half-maximal response (EC50) required 156 nM. Consider `COc1cccc(OC2CC(COc3cccc([C@H](C4CC4)[C@H](C)C(=O)O)c3)C2)c1` (stereo partly drawn) [Example 64, (2S,3R)-3-Cyclopropyl-3-(3-((3-(3-methoxyphenoxy)cyclobutyl)methoxy)phenyl)-2-methylpropanoic acid], for which the concentration giving a half-maximal response (EC50) is 60 nM. This EC50 is about 2.6-fold lower than that of the compound before. As to `Cc1c(OC2CC(COc3cccc([C@H](C4CC4)[C@H](C)C(=O)O)c3)C2)nn(C)c1C(F)(F)F` (stereo partly shown) [Example 100], the EC50 stood at 560 nM. As to `COc1cc(OC2CC(COc3cccc([C@H](C4CC4)[C@H](C)C(=O)O)c3)C2)ccn1` (stereo partly shown) [Example 93], the midpoint of the response, the EC50, lay at 181 nM. As for `C[C@H](C(=O)O)[C@H](c1cccc(OCC2CC(Oc3cccnc3)C2)c1)C1CC1` (stereo partly shown) [Example 109], the response was half-maximal at 7190 nM (EC50). Against the preceding compound, the EC50 is about 40-fold higher.

Compound `COc1cccc([C@H]2CC[C@@H](COc3cccc([C@H](C4CC4)[C@H](C)C(=O)O)c3)C2)c1` [Example 79, (2S,3R)-3-cyclopropyl-3-(3-(((1R,3 S)-3-(3-methoxyphenyl)cyclopentyl)methoxy)phenyl)-2-methylpropanoic acid] registered an EC50 of 118 nM. For the compound `COc1ccnc(OC2CC(COc3cccc([C@H](C4CC4)[C@H](C)C(=O)O)c3)C2)c1` (single isomer, unassigned) [Example 105], it took 56 nM to reach a half-maximal effect (EC50).

In turn, `COc1cccc(C2CC2COc2cccc([C@H](C3CC3)[C@H](C)C(=O)O)c2)c1` (stereo partly shown) [Example 69] had an EC50 of 166 nM. `C[C@H](C(=O)O)[C@H](c1cccc(OCC2CC(Oc3cccc(-c4ccccc4)c3)C2)c1)C1CC1` (single isomer, unassigned) [Example 121] displayed an EC50 of 561 nM. For `C[C@H](C(=O)O)[C@H](c1cccc(OC[C@H]2C[C@@H]2c2cccc(OC3CC3)c2)c1)C1CC1` [Example 138], the EC50 is 74 nM. In the case of `C[C@H](C(=O)O)[C@H](c1cccc(OCC2CC(Oc3ccccn3)C2)c1)C1CC1` (stereo partly shown) [Example 102] it was 643 nM; in that of `C[C@H](C(=O)O)[C@H](c1cccc(OC[C@H]2C[C@@H]2c2cccc(OC(F)(F)F)c2)c1)C1CC1` [Example 137], 176 nM; in that of `CC(C)Oc1ccccc1OC1CC(COc2cccc([C@H](C3CC3)[C@H](C)C(=O)O)c2)C1` (single isomer, unassigned) [Example 127], 182 nM. `C[C@H](C(=O)O)[C@H](c1cccc(OCC2CC(c3ccccc3)C2)c1)C1CC1` (stereo partly shown) [Example 72] returned an EC50 of 201 nM. On to `C[C@H](C(=O)O)[C@H](c1cccc(OCC2CCN(c3cccc(C(F)(F)F)n3)CC2)c1)C1CC1` [Example 37], for which it took 177 nM to reach a half-maximal effect (EC50). The EC50 values of the last two compounds are within 1.5-fold of each other.

`COc1cc(OC2CC(COc3cccc([C@H](C4CC4)[C@H](C)C(=O)O)c3)C2)c(F)cn1` (stereo partly shown) [Example 106] registered an EC50 of 54 nM. Take `COc1ccc(F)c(OC2CC(COc3cccc([C@H](C4CC4)[C@H](C)C(=O)O)c3)C2)c1` (single isomer, unassigned) [Example 80]: the EC50 stood at 12 nM. This EC50 lies about 4.5-fold lower than the previous one. The compound `C[C@H](C(=O)O)[C@H](c1cccc(OCC2CC(Oc3c(F)cccc3F)C2)c1)C1CC1` (stereo partly shown) [Example 114] showed an EC50 of 107 nM. In turn, `C[C@H](C(=O)O)[C@H](c1cccc(OCC2CC(Oc3cccnc3)C2)c1)C1CC1` (stereo partly shown) [Example 110] showed a half-maximal effective concentration (EC50) of 1960 nM.

In turn, `COc1cccc(C[C@@H]2C[C@H]2COc2cccc([C@H](C3CC3)[C@H](C)C(=O)O)c2)c1` [Example 71] gave an EC50 of 187 nM. The same measure for `COc1ccccc1OC1CC(COc2cccc([C@H](C3CC3)[C@H](C)C(=O)O)c2)C1` (stereo partly shown) [Example 128]: 72 nM. For the compound `C[C@H](C(=O)O)[C@H](c1cccc(OCC2CCN([C@H](C)c3cc(C(F)(F)F)ccc3C(F)(F)F)C2)c1)C1CC1` (stereo partly shown) [Example 40], the concentration giving a half-maximal response (EC50) is 25 nM. In the case of `CCOc1ccc(OC2CC(COc3cccc([C@H](C4CC4)[C@H](C)C(=O)O)c3)C2)cc1` (stereo partly shown) [Example 113], the EC50 was determined as 1210 nM. `COc1ccc(Cl)c([C@H]2C[C@@H]2COc2cccc([C@H](C3CC3)[C@H](C)C(=O)O)c2)c1` [Example 158]: the EC50 came out at 26 nM. `CCOc1ccccc1OC1CC(COc2cccc([C@H](C3CC3)[C@H](C)C(=O)O)c2)C1` (stereo partly shown) [Example 112] gave a concentration giving a half-maximal response (EC50) of 109 nM. Compared with the last compound, the EC50 is about 4.2-fold higher. Turning to `COc1ccc(F)c([C@@H]2C[C@H]2COc2cccc([C@H](C3CC3)[C@H](C)C(=O)O)c2)c1` [Example 75], the EC50 was determined as 34 nM. In the case of `COc1cc([C@@H]2C[C@H]2COc2cccc([C@H](C3CC3)[C@H](C)C(=O)O)c2)c(F)cn1` [Example 76], the midpoint of the response, the EC50, lay at 138 nM. This EC50 lies about 4.1-fold higher than the previous one. In the case of `COc1ccnc(OC2CC(COc3cccc([C@H](C4CC4)[C@H](C)C(=O)O)c3)C2)c1` (single isomer, unassigned) [Example 104] it was 564 nM; in that of `C[C@H](C(=O)O)[C@H](c1cccc(OCC2CC(Oc3cccc(O)c3)C2)c1)C1CC1` (single isomer, unassigned) [Example 122], 597 nM; in that of `COc1ccc(F)c(OC2CC(COc3cccc([C@H](C4CC4)[C@H](C)C(=O)O)c3)C2)c1` (stereo partly drawn) [Example 81, (2S,3R)-3-cyclopropyl-3-(3-((3-(2-fluoro-5-methoxyphenoxy)cyclobutyl)methoxy)phenyl)-2-methylpropanoic acid], 45 nM.

`COc1ccc(C)cc1OC1CC(COc2cccc([C@H](C3CC3)[C@H](C)C(=O)O)c2)C1` (single isomer, unassigned) [Example 117] returned an EC50 of 50 nM. In the case of `C[C@H](C(=O)O)[C@H](c1cccc(OCC2CC(Oc3cccc4c3OC(C)(C)C4)C2)c1)C1CC1` (stereo partly shown) [Example 135], the EC50 was determined as 307 nM. In turn, `COc1cccc(C2CC2COc2cccc([C@H](C3CC3)[C@H](C)C(=O)O)c2)c1` (stereo partly drawn) [Example 82, (2S,3R)-3-cyclopropyl-3-(3-((2-(3-methoxyphenyl)cyclopropyl)methoxy)phenyl)-2-methylpropanoic acid] displayed an EC50 of 172 nM. In the case of `C[C@H](C(=O)O)[C@H](c1cccc(OCC2CC(Oc3cccc(-c4ccccc4)c3)C2)c1)C1CC1` (single isomer, unassigned) [Example 120] it was 975 nM. Regarding `C[C@H](C(=O)O)[C@H](c1cccc(OCC2CC(Oc3cc(F)ccc3F)C2)c1)C1CC1` (stereo partly shown) [Example 115], a half-maximal effect (EC50) was put at 110 nM. Consider `COc1ccc(F)c(OC2CC(COc3cccc([C@H](C4CC4)[C@H](C)C(=O)O)c3)C2)c1` (stereo partly shown) [Example 73], for which the EC50 came out at 43 nM.

`COc1cc(F)cc([C@H]2C[C@@H]2COc2cccc([C@H](C3CC3)[C@H](C)C(=O)O)c2)c1` [Example 141] displayed an EC50 of 109 nM. For the compound `COc1ccc(F)c([C@H]2C[C@@H]2COc2cccc([C@H](C3CC3)[C@H](C)C(=O)O)c2)c1F` [Example 142], a half-maximal response (EC50) required 78 nM.
